Experimental data: US7465469B2, “Microbiocidal formulation comprising essentials oils or their derivatives” (State of Israel, Ministry of Agriculture & Rural …, priority 2001, dated 2008)
In brackets after ≈: the same amount, converted by molar mass. Read-outs that look alike come from different tables or passages of the source.

Legend:
P. digitatum [1] = experiment: Mode of action test (fungicidal or fungistatic) by transfer of the mycelial disc to plain PDA; type: cell-based, Penicillium digitatum; details: growth monitored 5 days after transfer to plain PDA
From the text: A further test was made (in vitro) to investigate whether the mode of action was fungicidal or fungistatic; the mycelial disc of inoculum from the assay plate was transferred to a plate containing just PDA. Plates were then monitored for growth over the next 5 days. If growth resumed, the compound was classified fungistatic, and if growth was not resumed it was classified as fungicidal.

P. digitatum [2] = experiment: Minimum inhibitory concentration in PDA Petri dishes (mycelial disc); type: cell-based, Penicillium digitatum; details: 24° C., hyphal growth after 7 days
Method: The minimum inhibitory concentration (MIC) of over 50 compounds that were found in the oil glands of citrus fruits was evaluated (in vitro) by establishing the lowest concentration of the compound where no growth of the pathogen occurred (in vitro) in Petri dishes. Table 5 gives the MIC of the more promising compounds (as compared to imazalil). The requisite amount of each of the compounds to be tested, dissolved in 0.5 ml acetone, was added to a sterile Petri dish (90 mm) containing 15 ml of molten potato dextrose agar (PDA) (50° C.) to give a final concentration of 1 mg ml^−1. The dish was gently agitated to ensure an even distribution of the test compound and the agar was then left to set. The dishes were inoculated using a mycelial disc (8 mm) cut from an agar plate culture of P. digitatum which had not yet begun sporulation. The mycelial discs were placed in the center of each test dish and then put at 24° C. Fungal inhibition was monitored by measuring the diameter of hyphal growth after 7 days.

Geotrichum Candidum = experiment: In vitro agar diffusion assay; type: cell-based; details: Five mg on paper disc; Total inhibition is the maximal inhibition, 62.3 cm^2
Penicillium italicum = experiment: In vitro agar diffusion assay; type: cell-based; details: Five mg on paper disc; Total inhibition is the maximal inhibition, 62.3 cm^2
Penicillium = experiment: Decay of lemons inoculated as in Example 2 and treated with citral emulsions; type: in vivo, Penicillium digitatum on lemons
Method: Unblemished grapefruit were harvested from the orchard and on the same day sorted again in the laboratory to eliminate injured fruit. The grapefruit were washed with tap water and air-dried. Each fruit was then inoculated by piercing its flavedo tissue 1.5 mm deep with a tool incorporating three needles at three different sites. Prior to each piercing, the tool was immersed in a spore suspension of Penicillium digitatum (10^6 spores/ml). The inoculated grapefruit were kept at 17° C. and 85% relative humidity for 24 hours after which the grapefruit were divided into six groups and grapefruit from each group were treated by dipping for two minutes in: (a) water; (b) 25% Ethanol (EtOH); (c) 0.2% Geraniol in 25% EtOH; (d) 0.1% Citral in 25% EtOH, (e) 0.2% Citral in 25% EtOH and (f) 0.5% Citral in 25% EtOH.
Lemons were inoculated as shown in Example 2 and treated with and without 25% of ethanol to check whether the 5000 ppm of the emulsifier Tween 20 could stabilize the antifungal activity of citral. […] Probably the emulsifier enables the formation of a microcolloidal stable emulsion, which prevents the phytotxicity by allowing uniform dispersion of citral, which is phytotoxic by itself in these concentrations. Thus, Tween 20 combined with the antioxidant BHA could substitute for the ethanol in the formulation.
Lemons inoculated with Penicillium as shown in Example 2 were dipped for 2 minutes in an aqueous solution comprising citral, emulsifier (Triton X100) and BHA at various concentrations. The concentration of Citral is 1.0%. The control solution was comprised of 0.5% Triton X100.
Lemons inoculated with Penicillium as shown in Example 2 were treated with an aqueous solution comprising 0.5% Citral, 0.3% BHA, Tween 20 and imazalil and stored at 20° C. for a period of 21 days.

[3] = system: non-inoculated Washington oranges; experiment: Decay percentage of non-inoculated Washington oranges during storage; type: in vivo, Washington navel oranges
Method: Non-inoculated Washington navel oranges were divided into […] groups which were treated as follows: (a) no treatment; (b) dipped in 50% Ethanol; (c) dipped in 0.2% Citral in 0.02% L-77 Emulsifier (aqueous emulsion); (d) dipped in 0.2% Citral in 50% Ethanol; and (e) dipped in a 0.2% aqueous Imazalil solution.
Oranges were then stored for four months at 15° C. in 50-75% relative humidity and the percentage of rotten fruit in each group was measured at different time periods after storage.

Alternaria citri = experiment: In vitro agar diffusion assay; type: cell-based; details: Five mg on paper disc; Total inhibition is the maximal inhibition, 62.3 cm^2
Penicillium digitatum [4] = experiment: Decay of lemons inoculated with Penicillium 10^4 spores/ml and dipped; type: in vivo, Penicillium digitatum on lemons; details: limonene or peel extract not irradiated or exposed to sunlight
Method: Lemon fruit flavedo (exocarp) was taken and extracted overnight in dichloromethane, then exposed to sunlight for about 18 hours until the color of the dichloromethane extract turned brown. The flavedo was blended and filtered through a layer of Whatman paper. The extracted solution was evaporated to remove the dichloromethane and the dense liquor was further separated by chromatography with a silica 60 column using dichloromethane as a carrier. Two fractions of dichloromethane, one green and the other colorless, were obtained after chromatography. The crude active extract was isolated by evaporation of the green dichloromethane fraction. […] Effect of the compounds on pathogen development on the fruit was checked daily during storage.
The antifungal activity of the products prepared in the two different routes was checked in the same method. […] Decay was evaluated at specific intervals during a period of 26 days.
Lemons inoculated with Penicillium (10^4 spores/ml) were dipped in an aqueous solution comprising citral, a detergent (Tween 20), other essential oil components as well as a dichloromethane crude extract of lemon flavedo exposed to sunlight. Decay was evaluated at specific intervals during a period of 20 days.
Pure limonene was exposed to sunlight for three hours. […]

lemons = experiment: Induction of phytoalexins (scoparone, scopoletin) in lemons; type: in vivo, lemon; details: injection into the albedo tissue of lemons
Method: Treating uninoculated lemons by injecting 5 μl photo-oxidized limonene into the albedo tissue, just below the flavedo, elicited in these lemons the production of scoparone and scopoletin up to levels adequate to protect the fruit from the pathogen. […] Such injury of yellow fruit gave much lower response showing that the maturity of fruit affects this resistance response and older fruit is less protected (FIG. 2). […] Furthermore much higher levels of both scoparone (over 1000 μg/g fresh weight) and of scopoletin (over 200 μg/g fresh weight) were found after dipping inoculated fruit in the crude dichloromethane extract that prevented decay (FIG. 7). The phytoalexins level found was several fold of the amount required to control completely the pathogens. Thus apparently, the formed limonene hydroperoxides form reactive oxygen species, which elicit the immune system of the plant. Such reactive oxygen species effect the pathogen as well. These reactive oxygen species have a short life and decompose well before the fruit is distributed to the market.

fruit = experiment: Phytotoxicity of citral solutions comprising emulsifiers (1-minute fruit dip); details: in vivo
From the text: (§1) The blemish score is 0 =no blemishes; 1=light blemishes; 2=moderate blemishes; and 3=severe blemishes.

lemon fruit = experiment: Peel blemish index of lemon fruit after 1-minute dip in citral with antioxidant BHA; type: in vivo; details: BHA by itself
From the text: The antioxidant reduces the oxidation rate of the essential oils leading to their decomposition. It further reduces the inherent phytotoxicity of the essential oil. The antioxidant may be chosen from the group comprising of compounds such as but not limited to: butylated hydroxyanisole (BHA), ascorbic acid, isoascorbic acid, α-tocopherol, butylated hydroxytoluene (BHT), β-carotene or their mixtures. Preferred concentrations of the antioxidant in the formulation of the invention are in the range of from about 0.05% to about 0.8% (w/v).
The peel blemish index is determined by
as §1

Penicillium digitatum [5] = experiment: Decay of Penicillium-inoculated grapefruit after 2-minute dip; type: in vivo, Penicillium digitatum on grapefruit
From the text: Unblemished grapefruit were harvested from the orchard and on the same day sorted again in the laboratory to eliminate injured fruit. The grapefruit were washed with tap water and air-dried. Each fruit was then inoculated by piercing its flavedo tissue 1.5 mm deep with a tool incorporating three needles at three different sites. Prior to each piercing, the tool was immersed in a spore suspension of Penicillium digitatum (10^6 spores/ml).

[6] = system: wild type Candida albicans; experiment: Growth of Candida albicans cells in culture broth (OD 600 nm); type: cell-based
Method: Cells of wild type Candida albicans (1×10^3) were grown on culture broth at 37° C. with different concentration of extracts 50-100 μl. OD was determined at 600 nm. The following treatments in 6 different tubes were given: […] TUBE 2. 2000 ppm Citral+25% Ethanol+2000 ppm Tween-20+300 ppm BHA. […] TUBE 6. 25% ethanol+2000 ppm Tween-20+500 ppm β-CD+300 ppm BHA.

[7] = system: microbial population in meat cuts of beef; experiment: Total count of microbial population in beef meat cuts after dip; details: 30 seconds dip in 0.2% Citral dissolved in 20% ethanol; 2 weeks at 1° C.
Method: The meat cuts were then stored in 1° C. and 85% relative humidity and a total count of the microbial population in each meat cut was carried out 2 weeks after treatment.

P. digitatum [8] = experiment: Control of fungal growth (other experiments, data not shown); type: cell-based, Penicillium digitatum
Cladosporium herbarum = experiment: Inhibition of Cladosporium herbarum growing on inoculated corn cob; type: in vivo; details: dissolved in 25% ethanol
Erwinia carotovora = experiment: Control of bacterial growth (other experiments, data not shown); type: cell-based
[9] = Penicillium digitatum, 168 h, read-out: MIC

MIC (P. digitatum [2]; [9])	Compound	Mode of action (P. digitatum [1])	GROWTH INHIBITION AREA OF THE PATHOGEN (Geotrichum Candidum)	GROWTH INHIBITION AREA OF THE PATHOGEN (Penicillium italicum)	GROWTH INHIBITION AREA OF THE PATHOGEN (Alternaria citri)	further results
–	C=C(C)[C@@H]1CC=C(CO)CC1 [Perillalcohol]	Fungicidal	–	–	–	MIC (P. digitatum [2]): 0.4 mg ml^−1 agar
< 25 µg/mL	C=CCOC(Cn1ccnc1)c1ccc(Cl)cc1Cl (stereo not shown) [Imazalil, reference compound]	Fungicidal	8.3 cm^2	Total inhibition	42.8 cm^2	decay control (Penicillium; imazalil 1 and 10 ppm, stored at 20° C. for 21 days): insufficient to control completely decay; % of rotten fruit ([3]; 0.5 months of storage at 15° C.): 0%; % of rotten fruit ([3]; 1 month of storage at 15° C.): 2%; % of rotten fruit ([3]; 2 months of storage at 15° C.): 4%; % of rotten fruit ([3]; 3 months of storage at 15° C.): 5%; % of rotten fruit ([3]; 4 months of storage at 15° C.): 8%
–	C=C(C)C1CC=C(C)CC1 (stereo not shown) [limonene, 1-methyl-4-(1-methylethenyl)cyclohexene]	–	–	–	–	inhibition of decay (Penicillium digitatum [4]): not adequately active; elicitation of phytoalexin (scoparone, scopoletin) production (lemons): eliciting the endogenous resistance mechanisms
50 µg/mL (≈ 316 µM)	CCCCCCCCCCO [Decanol]	Fungistatic	0.95 cm^2	Total inhibition	Total inhibition	–
200 µg/mL (≈ 1390 µM)	CCCCCCCCCO [Nonanol]	Fungistatic	–	–	–	–
–	polyoxyethylene sorbitan monooleate [Tween 80]	–	–	–	–	Phytotoxicity (peel blemish index as in Table 1) (fruit): 0
–	COc1ccc(O)c(C(C)(C)C)c1 [BHA, butylated hydroxyanisole]	–	–	–	–	activity of citral in preventing the development of the pathogen (Penicillium; 0.1% BHA with 1.0% citral and Triton X100, 2 minutes dip): enhancing the activity of citral; Peel blemish (lemon fruit): did not cause any blemish
100 µg/mL (≈ 768 µM)	CCCCCCCCO [Octanol]	Fungicidal	Total inhibition	Total inhibition	Total inhibition	–
400 µg/mL (≈ 2630 µM)	CC(C)=CCCC(C)=CC=O [Citral, 3,7-dimethyl-2,6-octadienal]	Fungicidal	10.6 cm^2	Total inhibition	Total inhibition	fruit showing decay (Penicillium digitatum [5]; 0.2% Citral dissolved in 25% EtOH, 28 days after inoculation): 20%; decay of fruit (Penicillium digitatum [5]; 0.2% Citral dissolved in 25% EtOH, until 18 days after inoculation): completely inhibited decay; decay of fruit (Penicillium digitatum [5]; 0.5% Citral in 25% EtOH, ascribed to phytotoxicity): enhanced decay; cell growth ([6]; 2000 ppm Citral in 25% ethanol and 2000 ppm Tween 20): completely inhibited cell growth; cell growth ([6]; 2000 ppm Citral, 25% ethanol, 2000 ppm Tween 20 together with β-CD 500 ppm, 300 ppm BHA): completely inhibited cell growth; total counts of microbial population, relative to the non-treated meat cuts [7]: less than 10%; decay control (Penicillium; 0.5% citral added to 1 ppm imazalil, 0.3% BHA, Tween 20, 20° C., 21 days): did not control decay adequately; decay control (Penicillium; 0.5% citral added to 10 ppm imazalil, 0.3% BHA, Tween 20, 20° C., 21 days): prevented decay completely; controlling growth of the fungi (P. digitatum [8]): effective in controlling growth; inhibition of the pathogen (Cladosporium herbarum): marked inhibition; elicitation of phytoalexin (scoparone, scopoletin) production (lemons): did not elicit the same protective response; controlling growth of the bacteria (Erwinia carotovora): effective in controlling growth
600 µg/mL (≈ 3890 µM)	CC(C)=CCCC(C)CC=O (stereo not shown) [Citronellal]	Fungistatic	–	–	–	–
1000 µg/mL	C=C(C)C1CC=C(C)C(O)C1 (mixture of isomers) [Carveol]	Fungistatic	–	–	–	–
–	CCCCCCCC=O [Octanal]	–	3.6 cm^2	2.6 cm^2	5.3 cm^2	–

Compound	MIC (P. digitatum [2]; [9])	Mode of action (P. digitatum [1])	GROWTH INHIBITION AREA OF THE PATHOGEN (Geotrichum Candidum)	GROWTH INHIBITION AREA OF THE PATHOGEN (Penicillium italicum)	GROWTH INHIBITION AREA OF THE PATHOGEN (Alternaria citri)	further results
C=C(C)C1CC=C(C=O)CC1 (stereo not shown) [Perillaldehyde]	400 µg/mL (≈ 2660 µM)	Fungicidal	Total inhibition	Total inhibition	Total inhibition	–
O=CC=Cc1ccccc1 [Cinnamaldehyde]	400 µg/mL (≈ 3030 µM)	Fungicidal	24.2 cm^2	Total inhibition	Total inhibition	–
